EP2727916A1, “Neuroprotective multi-target directed drugs” (Universitat Autònoma de Barcelona, priority 2012, dated 2014)
“Also recorded” adds a separate entry of the source.

What was measured:
[1] = target: T1, ratMAO-A (Rattus norvegicus, UniProt P21396); assay: Kinetic study of MAO-A inhibition (Lineweaver-Burk plots); type: biochemical; set-up: from tissue; host or cells: rat brain homogenate per the methods
T1 sequence (P21396 1-526): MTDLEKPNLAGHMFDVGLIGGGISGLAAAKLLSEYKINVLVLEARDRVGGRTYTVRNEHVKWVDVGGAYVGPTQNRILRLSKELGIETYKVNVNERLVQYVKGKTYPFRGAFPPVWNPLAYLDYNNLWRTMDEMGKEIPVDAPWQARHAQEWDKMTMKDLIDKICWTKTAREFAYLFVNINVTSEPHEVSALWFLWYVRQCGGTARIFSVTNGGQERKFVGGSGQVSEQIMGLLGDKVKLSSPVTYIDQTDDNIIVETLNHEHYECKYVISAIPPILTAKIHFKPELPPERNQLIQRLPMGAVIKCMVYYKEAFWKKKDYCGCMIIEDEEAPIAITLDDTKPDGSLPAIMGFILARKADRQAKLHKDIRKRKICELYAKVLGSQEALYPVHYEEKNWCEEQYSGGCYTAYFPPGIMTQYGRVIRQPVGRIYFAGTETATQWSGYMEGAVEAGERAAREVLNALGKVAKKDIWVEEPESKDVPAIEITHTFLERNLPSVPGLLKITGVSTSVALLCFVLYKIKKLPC
Experimental: (§1) Lineweaver-Burk reciprocal plots of initial velocity and substrate concentrations (0.1-1 mM) are presented. […] Lineweaver-Burk reciprocal plots of initial velocity and substrate concentrations (0.1-1 mM) are presented. […] Lineweaver-Burk reciprocal plots of initial velocity and substrate concentrations (0.1-1 mM) are presented. […] Three consecutive centrifuges were performed with buffer. […] 5 µM). All solution were made using Tris buffer pH7.4. […] 5 µM). All solution were made using Tris buffer pH7.4. […] 5 µM). All solution were made using Tris buffer pH7.4. Spectra were obtained after a Short-time incubation

[2] = target: T2, ratMAO-B (Rattus norvegicus, UniProt P19643); assay: MAO-B inhibition, radiometric method of Fowler and Tipton (14C PEA); type: biochemical; set-up: MAO-A and MAO-B activities were determined in rat brain homogenate; from tissue; host or cells: rat brain homogenate per the methods
T2 sequence (P19643 1-520): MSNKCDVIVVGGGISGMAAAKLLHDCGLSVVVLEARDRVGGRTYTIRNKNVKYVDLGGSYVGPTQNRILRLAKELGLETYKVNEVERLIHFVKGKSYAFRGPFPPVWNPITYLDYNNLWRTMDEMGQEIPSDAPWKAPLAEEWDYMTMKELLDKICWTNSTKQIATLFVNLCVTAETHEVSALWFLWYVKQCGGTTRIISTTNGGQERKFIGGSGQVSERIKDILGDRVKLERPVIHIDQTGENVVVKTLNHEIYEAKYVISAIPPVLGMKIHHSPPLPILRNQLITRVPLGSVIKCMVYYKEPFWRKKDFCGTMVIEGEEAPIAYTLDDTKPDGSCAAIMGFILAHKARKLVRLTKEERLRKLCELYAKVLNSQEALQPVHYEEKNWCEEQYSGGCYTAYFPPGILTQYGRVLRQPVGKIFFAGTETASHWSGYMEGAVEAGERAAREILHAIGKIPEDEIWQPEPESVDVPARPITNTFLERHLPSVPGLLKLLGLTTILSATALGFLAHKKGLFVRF

[3] = target: equine serum butyrylcholinesterase (eqBuChE) (Equus caballus, UniProt P81908); assay: biochemical; type: biochemical
equine serum butyrylcholinesterase (eqBuChE), sequence (P81908 whole entry): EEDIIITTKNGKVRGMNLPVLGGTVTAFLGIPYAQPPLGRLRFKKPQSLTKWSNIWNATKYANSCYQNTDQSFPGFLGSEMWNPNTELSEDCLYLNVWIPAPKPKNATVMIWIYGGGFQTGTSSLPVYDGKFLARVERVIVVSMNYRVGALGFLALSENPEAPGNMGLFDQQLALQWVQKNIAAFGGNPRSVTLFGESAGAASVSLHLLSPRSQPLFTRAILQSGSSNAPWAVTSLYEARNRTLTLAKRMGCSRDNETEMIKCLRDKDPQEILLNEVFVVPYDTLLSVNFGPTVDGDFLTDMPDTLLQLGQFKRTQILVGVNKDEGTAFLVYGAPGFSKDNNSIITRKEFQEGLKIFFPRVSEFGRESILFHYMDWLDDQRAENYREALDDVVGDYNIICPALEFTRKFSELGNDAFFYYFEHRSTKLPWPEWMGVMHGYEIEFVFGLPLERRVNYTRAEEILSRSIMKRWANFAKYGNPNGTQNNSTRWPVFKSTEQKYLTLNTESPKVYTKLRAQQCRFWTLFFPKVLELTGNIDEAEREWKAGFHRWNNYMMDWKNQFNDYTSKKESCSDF

[4] = target: T3, MAO-B (Rattus norvegicus, UniProt P19643); assay: Reversibility study of MAO-B inhibition (centrifugation and washing); type: biochemical
T3 construct: from tissue; host or cells: rat brain homogenate per the methods
T3 sequence (P19643 1-520): T2 sequence (P19643 1-520)
Experimental: as §1

[5] = Metal binding assay, spectrophotometric detection of Cu(II) complex; type: physicochemical; conditions: 10 µM, Tris buffer pH7.4, Cu(SO4) 6.25 and 12.5 µM, few minutes after addition
Experimental: as §1
It is known that 8-quinolinol is a strong chelator for biometals such iron and copper. This is an important precondition for the antioxidative-type drugs because it is the excessive iron stores and iron-mediated generation of free radicals in the brain that are thought to be associated with neurodegenerative diseases. Therefore, only chelators with a higher selectivity for iron over copper are expected to chelate iron instead of copper and have potential neuroprotective effects. […] A spectrophotometric method is used for measurement of the copper/iron-complexes stability constants of the compounds.
The metal binding assay was performed by the spectrophotometric detection of the formation of Fe(III)- and Cu(II)-6 complex.

[6] = target: electrophorus electricus acetylcholinesterase (eeAChE) (Electrophorus electricus, UniProt O42275); assay: biochemical; type: biochemical
electrophorus electricus acetylcholinesterase (eeAChE), sequence (O42275 24-633): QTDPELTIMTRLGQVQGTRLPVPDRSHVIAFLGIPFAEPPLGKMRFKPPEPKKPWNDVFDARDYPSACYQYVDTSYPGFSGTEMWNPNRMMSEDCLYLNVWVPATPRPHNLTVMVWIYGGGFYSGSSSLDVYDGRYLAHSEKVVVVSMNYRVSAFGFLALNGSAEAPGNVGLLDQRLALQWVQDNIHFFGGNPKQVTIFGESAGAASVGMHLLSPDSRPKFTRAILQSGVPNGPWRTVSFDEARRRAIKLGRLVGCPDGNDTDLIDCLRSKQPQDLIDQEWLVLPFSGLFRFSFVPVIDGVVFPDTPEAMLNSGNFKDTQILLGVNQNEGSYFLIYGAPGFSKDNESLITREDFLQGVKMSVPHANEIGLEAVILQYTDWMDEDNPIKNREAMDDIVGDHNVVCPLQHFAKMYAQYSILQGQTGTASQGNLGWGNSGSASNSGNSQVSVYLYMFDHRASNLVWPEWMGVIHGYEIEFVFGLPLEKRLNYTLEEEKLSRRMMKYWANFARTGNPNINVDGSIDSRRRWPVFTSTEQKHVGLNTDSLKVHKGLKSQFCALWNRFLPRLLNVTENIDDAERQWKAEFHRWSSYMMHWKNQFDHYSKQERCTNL

[7] = target: T1, ratMAO-A; assay: MAO-A inhibition, radiometric method of Fowler and Tipton (14C 5-HT); type: biochemical; set-up: MAO-A and MAO-B activities were determined in rat brain homogenate; from tissue; host or cells: rat brain homogenate per the methods
[8] = target: EeAChE (Electrophorus electricus, UniProt O42275); assay: Kinetic study of EeAChE inhibition (Lineweaver-Burk plots); type: biochemical
EeAChE, sequence (O42275 24-633): as above
Experimental: as §1
To determine the type of the EeAChE inhibition mechanism of these compounds, a kinetic study was carried out on inhibitor 6.

[9] = target: T3, MAO-B; assay: Time-dependence of MAO-B inhibition (pre-incubation times); type: biochemical
Experimental: as §1
Independent inhibition assays were also performed at different pre-incubation periods for both two MAO isoforms (Figure 6). […]

[10] = target: T2, ratMAO-B; assay: Kinetic study of MAO-B inhibition (Lineweaver-Burk plots); type: biochemical; set-up: from tissue; host or cells: rat brain homogenate per the methods
Experimental: as §1

[11] = target: T4, MAO-A (Rattus norvegicus, UniProt P21396); assay: Reversibility study of MAO-A inhibition (centrifugation and washing); type: biochemical
T4 construct: from tissue; host or cells: rat brain homogenate per the methods
T4 sequence (P21396 1-526): T1 sequence (P21396 1-526)
Experimental: as §1

[12] = Lineweaver-Burk reciprocal plots
[13] = estimated from the slopes of double reciprocal plots
[14] = 20 µM, pre-incubation times 0-360 min

Structure (SMILES): C#CCN(Cc1ccc(O)c2ncccc12)C(C#N)CCC1CCN(Cc2ccccc2)CC1 (stereo not shown) [Compound 6, 4-(1-benzylpiperidin-4-yl)-2-(((8-hydroxyquinolin-5-yl)methyl)(prop-2-yny)amino)butanenitrile]
- type of MAO-A inhibition mechanism [1, 12]: non-competitive inhibition
- Ki [1, 13]: 8.41 ± 1.32 µM
- IC50 [2]: 10.2 ± 0.9 µM
- MAO-B/ MAO-A [2]: 1.7
- fold less active than M-30 for the inhibition of MAO-B [2]: 179 fold
- fold more active than donepezil 1 for eqBuChE inhibition [3]: 4.5 fold
- IC50 ([3]; 20 minutes incubation at 37°C, mean ± standard error of the mean, read-out: IC50 eqBuChE): 1.63 ± 0.25 µM
- BuChE/ AChE ([3]; ratio of IC50 values): 0.92
- reversibility of MAO-B inhibition ([4]; 30 min inhibition (6 at 20 µM, I-deprenyl 20 nM), three consecutive centrifugations and washings with buffer): reversibly inhibited
- MAO-B activity recovering ([4]; inhibited at 20 µM for 30 min, three consecutive centrifuges with buffer, mean ± SEM): 55.8 ± 4.0%
- formation of Cu(II)-6 complex, UV-vis spectrum change [5]: The 240 nm-band completely dissapeared while a new one appeared at 275 nm
- IC50 [6]: 1.77 ± 0.1 µM
- fold more active than M-30 for the inhibition of AChE ([6]; compared with M-30): 64 fold
- IC50 [7]: 6.16 ± 0.7 µM
- fold less active than M-30 for the inhibition of MAO-A [7]: 166 fold
- fold more active than donepezil 1 for MAO-A [7]: 138 fold
- type of EeAChE inhibition mechanism [8, 12]: mixed-type inhibition
- Ki [8, 13]: 1.21 ± 0.25 µM
- pre-incubation period to complete MAO-B activity inhibition [9, 14]: ≥ 180 min
- time-dependence of MAO-B inhibition [9, 14]: irreversible behaviour; also recorded: time-dependent
- IC50 ([9]; pre-incubation time 0 min): 61.7 µM
- IC50 ([9]; pre-incubation time 30 min): 9.3 µM
- IC50 ([9]; pre-incubation time 60 min): 3.3 µM
- IC50 ([9]; pre-incubation time 240 min): 1.2 µM
- type of MAO-B inhibition mechanism [10, 12]: non-competitive inhibition
- Ki [10, 13]: 10.8 ± 2.43 µM
- reversibility of MAO-A inhibition ([11]; 30 min inhibition (6 at 10 µM, clorgyline 50 nM), three consecutive centrifugations and washings with buffer): reversibly inhibited
- MAO-A activity recovering ([11]; inhibited at 10 µM for 30 min, three consecutive centrifuges with buffer, mean ± SEM): 56.5 ± 9.3%
